Results as given in publication PMC11061149, “Protein mimetic 2D FAST rescues alpha synuclein aggregation mediated early and post disease Parkinson’s phenotypes” (Nature Communications, 2024).
Values joined by “and” are separate entries in the source; they are usually repeats but may differ in a detail not shown here. Equal values may be shown once.

What was measured:
αS = target: T1, αS (Homo sapiens, UniProt P37840); test: Isothermal titration calorimetry (ITC); format: binding; conditions: ligand titrated into 15 μM αS in PBS; read-out: dissociation constant (Kd)
T1 construct: made in house; host or cells: E. coli BL21(DE3)
Experimental: The ITC experiments were performed in a NANO-ITC (TA Instruments, New Castle, DE). For each ITC experiment, a solution of 250 μM NS132 in PBS was serially titrated (2 μL injections […] via rotary syringe, stirring speed at 300 rpm) into a sample cell containing 350 μL of 15 μM αS in the same buffer conditions at 300 sec intervals. The heat associated with each injection was calculated by integrating each heat burst curve using NanoAnalyze software (TA Instruments, New Castle, DE). The associated heat for each injection of NS132 in αS solution was corrected by subtracting heat resulted from the titration of NS132 into buffer (in 1 × PBS) under identical conditions. The corrected heat values were plotted as a function of the molar ratio of NS132 to αS and the plot was fitted using a one binding site independent model available in NanoAnalyze software. The fitting was carried out using 10,000 iterations in the software without any data constraints during the fitting. The ITC titrations were conducted in triplicate and the reported thermodynamic parameters were calculated as an average of three independent experiments.

αS fibers = target: T2, αS fibers (Homo sapiens, UniProt P37840); test: Transmission electron microscopy (TEM) of αS solutions; format: biochemical
T2 construct: made in house; host or cells: E. coli BL21(DE3)
Experimental: Transmission Electron Microscopy was used to visualize protein assemblies after aggregation experiments as previously described. Briefly, aliquots (5 μL) of αS solutions (with or without ligands) were applied on glow-discharged carbon-coated 300-mesh copper grids for 2 min and dried using Kimwipes (Kimberly-Clark, Irving, TX). The copper grids were negatively stained for 1 min with uranyl acetate (0.75%, w/v). The micrographs were taken on an FEI Tecnai G2 Biotwin TEM at 80 kV accelerating voltages.

[1] = target: T3, α-Synuclein (αS) aggregation (Homo sapiens, UniProt P37840); test: Thioflavin T (ThT) dye-based αS aggregation assay (de novo); format: biochemical
T3 construct: made in house; host or cells: E. coli BL21(DE3)
In short: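 100 μM αS incubated ±ligand at equimolar ratio, 37 °C with shaking at 1300 rpm; aliquots diluted into PBS containing 50 μM ThT. Fluorescence read at λex 450/λem 490 nm over time, single-point value taken at 96 h; mean of triplicates.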

Kd (αS): 1810 ± 330 nM | αS fibers seen in TEM images, in words (αS fibers; 100 µM αS aggregated for four days with ligand): did not observe αS fibers | αS fibers seen in TEM images, in words (αS fibers; fibers-catalyzed aggregation of αS, 60 h, equimolar NS132): significantly fewer αS fibers | ThT fluorescence intensity, Average ([1]; 100 µM αS + equimolar ligand, aggregation profile Fig. 2n/5c, time 0 hr): 108 | ThT fluorescence intensity, Average ([1]; 100 µM αS + equimolar ligand, comparison with reported ligands Fig. 5f, time 0 hr): 49.3333 | effect on αS aggregation (ThT assay), in words ([1]; 100 µM αS, equimolar, four days): completely suppressed | ThT intensity relative to Synuclein alone (=1), Average ([1]; 100 µM αS, four days, equimolar): 0.008333 | ThT intensity relative to Synuclein alone (=1), Trial 1-3 ([1]; 100 µM αS, four days, equimolar, individual trials): 0.009745 and 0.008898 and 0.006356 | ThT fluorescence intensity, Average ([1]; Fig. 2n/5c profile, time 6 hr): 108 | ThT fluorescence intensity, Average ([1]; Fig. 2n/5c profile, time 12 hr): 44.6667 | ThT fluorescence intensity, Average ([1]; Fig. 2n/5c profile, time 24 hr): 48.6667 | ThT fluorescence intensity, Average ([1]; Fig. 2n/5c profile, time 35 hr): 41 | ThT fluorescence intensity, Average ([1]; Fig. 2n/5c profile, time 48 hr): 76.6667 | ThT fluorescence intensity, Average ([1]; Fig. 2n/5c profile, time 58 hr): 49 | ThT fluorescence intensity, Average ([1]; Fig. 2n/5c profile, time 77 hr): 35 | ThT fluorescence intensity, Average ([1]; Fig. 2n/5c profile, time 105 hr): 35.3333 | ThT fluorescence intensity, Average ([1]; Fig. 5f profile, time 6 hr): 35.6667 | ThT fluorescence intensity, Average ([1]; Fig. 5f profile, time 12 hr): 44.3333 | ThT fluorescence intensity, Average ([1]; Fig. 5f profile, time 24 hr): 46 | ThT fluorescence intensity, Average ([1]; Fig. 5f profile, time 36 hr): 47.6667 | ThT fluorescence intensity, Average ([1]; Fig. 5f profile, time 48 hr): 43.6667 | ThT fluorescence intensity, Average ([1]; Fig. 5f profile, time 72 hr): 43.6667 | ThT fluorescence intensity, Average ([1]; Fig. 5f profile, time 96 hr): 44.6667 | Relative ThT intensity of αS aggregation, Average ([1]; sheet S7A, Synuclein alone about 1): 0.008333 | Relative ThT intensity of αS aggregation ([1]; sheet S7A, Synuclein alone about 1, individual trials): 0.009745 and 0.008898 and 0.006356 | Relative ThT intensity of αS aggregation, Average ([1]; sheet S8B, Synuclein alone = 1): 0.04997 | Relative ThT intensity of αS aggregation ([1]; sheet S8B, Synuclein alone about 1, individual trials): 0.0476 and 0.0492 and 0.0531 | ThT intensity of Synuclein with ligand, Average ([1]; sheet S17, average of 3 trials, Synuclein alone 206, ThT control 37): 50.3667 | ThT intensity of Synuclein with ligand, Trial 1-3 ([1]; sheet S17, individual trials, Synuclein alone average 206, ThT control average 37): 48.4 and 53.2 and 49.5 | inhibition of αS aggregation, in words ([1]; substoichiometric ratio αS:NS132 1:0.2): wholly inhibit | ThT intensity (raw), individual trials ([1]; αS aggregation after four days, NS132 derivatives equimolar (Fig. 2r)): 1344 and 1402 and 1510
SMILES: Cc1ccc(NC(=O)c2ccc(NC(=O)c3ccc([N+](=O)[O-])c(NCCc4c[nH]c5ccccc45)n3)c(NCC3CCCCC3)n2)c(OCC(=O)O)n1 [NS132]
